Tests used:
Assay in all cases: relative viability (nuclei count vs DMSO), 5 days (fraction); higher = more cells survive
[1] = compound: Cc1ccc(C(=O)Nc2ccc(CN3CCN(C)CC3)c(C(F)(F)F)c2)cc1C#Cc1cnc2cccnn12 [Ponatinib] + COc1cc2c(Oc3ccc(NC(=O)C4(C(=O)Nc5ccc(F)cc5)CC4)cc3F)ccnc2cc1OCCCN1CCOCC1 [Foretinib] (partner 0.25 µM)
How it was run: (§1)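 Five library-drug doses in √10 steps were combined with a fixed anchor-drug dose, or a single drug was given alone, by pin tool to lung cancer cell lines in 1536-well plates the day after seeding. Nuclei were stained and counted after 5 days. Relative viability is the nuclei count in treated wells over that in vehicle wells, taken as the median of duplicate plates.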

[2] = compound: Cc1ccc(C(=O)Nc2ccc(CN3CCN(C)CC3)c(C(F)(F)F)c2)cc1C#Cc1cnc2cccnn12 [Ponatinib] + O=C(CCCCCCC(=O)Nc1ccccc1)NO [Vorinostat] (partner 1 µM)
How it was run: as §1

[3] = compound: Cc1ccc(Nc2nccc(N(C)c3ccc4c(C)n(C)nc4c3)n2)cc1S(N)(=O)=O [Pazopanib] + CC(=O)Nc1cccc(-n2c(=O)n(C3CC3)c(=O)c3c(Nc4ccc(I)cc4F)n(C)c(=O)c(C)c32)c1 [Trametinib] (partner 0.02 µM)
How it was run: as §1

[4] = compound: Cc1ccc(Nc2nccc(N(C)c3ccc4c(C)n(C)nc4c3)n2)cc1S(N)(=O)=O [Pazopanib] + CC1(C)CCC(c2ccc(Cl)cc2)=C(CN2CCN(c3ccc(C(=O)NS(=O)(=O)c4ccc(N[C@H](CCN5CCOCC5)CSc5ccccc5)c(S(=O)(=O)C(F)(F)F)c4)cc3)CC2)C1 [Navitoclax] (partner 0.5 µM)
How it was run: as §1

| Cell Line | relative viability ([1]; first compound 0.002 µM) | relative viability ([1]; first compound 0.006325 µM) | relative viability ([1]; first compound 0.06325 µM) | relative viability ([1]; first compound 0.2 µM) | relative viability ([2]; first compound 0.002 µM) | relative viability ([2]; first compound 0.006325 µM) | relative viability ([2]; first compound 0.06325 µM) | relative viability ([2]; first compound 0.2 µM) | relative viability ([3]; first compound 0.01 µM) | relative viability ([3]; first compound 0.03162 µM) | relative viability ([3]; first compound 0.1 µM) | relative viability ([3]; first compound 0.3162 µM) | relative viability ([3]; first compound 1 µM) | relative viability ([4]; first compound 0.01 µM) | relative viability ([4]; first compound 0.03162 µM) | relative viability ([4]; first compound 0.1 µM) | relative viability ([4]; first compound 0.3162 µM) | relative viability ([4]; first compound 1 µM) |
| --- | --- | --- | --- | --- | --- | --- | --- | --- | --- | --- | --- | --- | --- | --- | --- | --- | --- | --- |
| NCI-H1975 | 0.911 | 0.955 | 1.03 | 1.01 | 0.669 | 0.71 | 0.688 | 0.579 | 0.277 | 0.323 | 0.369 | 0.373 | 0.401 | 1 | 1.2 | 1.17 | 1.12 | 1.02 |
| NCI-H1993 | 0.722 | 0.778 | 0.973 | 0.76 | 0.783 | 1.19 | 0.962 | 0.734 | – | 0.451 | 0.576 | 0.438 | 0.512 | 0.734 | 0.735 | 0.988 | 1.01 | 0.889 |
| NCI-H2009 | 1.18 | 1.2 | 1.22 | 1.17 | 0.666 | 0.783 | 0.694 | 0.585 | 0.277 | 0.25 | 0.175 | 0.315 | 0.332 | 1.19 | 1.18 | 1.2 | 1.11 | 0.979 |
| NCI-H2023 | 0.778 | 0.89 | 0.962 | 0.657 | 0.661 | 0.634 | 0.851 | 0.593 | 0.555 | 0.619 | 0.615 | 0.574 | 0.491 | 0.972 | 1 | 0.98 | 1.01 | 1.01 |
| NCI-H2085 | 0.989 | 0.836 | 0.879 | 0.832 | 0.768 | 0.877 | 1.02 | 0.825 | 0.44 | 0.518 | 0.568 | 0.574 | 0.592 | 1.18 | 1.22 | 1.26 | 1.15 | 1.31 |
| NCI-H2087 | 1.12 | 0.864 | 1.01 | 0.868 | 0.635 | 0.549 | 0.366 | 0.662 | 0.223 | 0.261 | 0.192 | 0.174 | 0.242 | 1.03 | 1.04 | 1.1 | 1.01 | 0.8 |
| NCI-H2126 | 1.12 | 1.29 | 1.34 | 1.07 | 0.784 | 0.777 | 0.988 | 0.789 | 0.506 | 0.503 | 0.599 | 0.563 | 0.577 | 0.798 | 0.779 | 0.848 | 0.817 | 0.881 |
| NCI-H2170 | 0.953 | 0.898 | 0.966 | 0.927 | 0.679 | 0.808 | 0.843 | 0.781 | 0.909 | 0.909 | 0.949 | 0.97 | 0.919 | 0.519 | 0.586 | 0.752 | 0.542 | 0.631 |
| NCI-H2228 | 0.656 | 0.83 | 0.907 | 0.791 | 0.658 | 0.588 | 0.7 | 0.575 | 0.353 | 0.501 | 0.425 | 0.32 | 0.759 | 0.847 | 1.1 | 1.03 | 0.98 | 0.913 |
| NCI-H2347 | – | 0.818 | 1.38 | 1.01 | 0.496 | 0.554 | 0.643 | 0.504 | 0.211 | 0.281 | 0.303 | 0.282 | 0.281 | 0.722 | 0.805 | 0.836 | 0.842 | 0.858 |
| NCI-H2405 | 1 | 1.06 | 1.04 | 0.935 | 0.896 | 0.906 | 1.01 | 0.822 | 0.562 | 0.672 | 0.666 | 0.644 | 0.524 | 0.903 | 0.985 | 1.05 | 1.27 | 1.07 |
| NCI-H3122 | 0.977 | 0.981 | 1 | 0.943 | 0.936 | 1.07 | 0.994 | 1.05 | 0.248 | 0.256 | 0.219 | 0.25 | 0.251 | 1.09 | 1.05 | 1.05 | 1.08 | 1.13 |
| PC-3 [JPC-3] | 0.947 | 1.01 | 1.15 | 1.03 | – | 0.703 | 0.868 | 0.898 | – | 0.686 | 0.73 | 0.835 | 0.65 | 0.762 | 0.794 | 0.904 | 0.723 | 0.793 |
| PC-14 | 0.981 | 1.04 | 1.14 | 0.975 | 0.68 | 0.668 | 0.9 | 0.647 | 0.834 | 0.775 | 0.896 | 1.09 | 0.766 | 1.06 | 1.06 | 1.09 | 0.954 | 0.948 |
| RERF-LC-KJ | 0.819 | 0.894 | 0.873 | 0.867 | 0.601 | 0.767 | 0.881 | 0.635 | 0.82 | 0.892 | 0.842 | 0.805 | 0.853 | 0.906 | 1.01 | 1.06 | 0.879 | 1.04 |
| SK-LU-1 | 0.852 | 0.795 | 0.826 | 0.63 | 0.699 | 0.76 | 0.832 | 0.702 | 0.42 | 0.499 | 0.516 | 0.54 | 0.54 | 0.828 | 0.898 | 0.994 | 0.964 | 0.749 |
| SK-MES-1 | 0.856 | 1.08 | 1.25 | 0.959 | 0.999 | 1.08 | 1.36 | 1.08 | 0.537 | 0.555 | 0.621 | 0.725 | 0.628 | 1.29 | 1.32 | 1.42 | 1.3 | 1.15 |

Reference: the supplement of paper PMC10307832
